Test: xn = mol fraction of the nth substance listed
Conditions: Gas, Buoyancy - hydrostatic balance with magnetic suspension - one sinker

[HH] [hydrogen] + N#N
Conditions | mass density [kg/m3]
324.95 K, 4997 kPa, x2 = 0.95 | 49.08
324.95 K, 4998 kPa, x2 = 0.9 | 46.597
324.95 K, 5000 kPa, x2 = 0.5001 | 27.194
324.95 K, 5997 kPa, x2 = 0.9 | 55.762
324.95 K, 5997 kPa, x2 = 0.95 | 58.767
324.95 K, 6001 kPa, x2 = 0.5001 | 32.482
324.95 K, 6997 kPa, x2 = 0.9 | 64.863
324.95 K, 7000 kPa, x2 = 0.95 | 68.408
324.95 K, 7002 kPa, x2 = 0.5001 | 37.712
324.95 K, 7996 kPa, x2 = 0.5001 | 42.85
324.95 K, 7997 kPa, x2 = 0.95 | 77.913
324.95 K, 7998 kPa, x2 = 0.9 | 73.894
324.95 K, 8997 kPa, x2 = 0.5001 | 47.967
324.95 K, 8998 kPa, x2 = 0.9 | 82.834
324.95 K, 8999 kPa, x2 = 0.95 | 87.379
324.95 K, 9998 kPa, x2 = 0.5001 | 53.025
324.95 K, 9998 kPa, x2 = 0.9 | 91.672
324.95 K, 9999 kPa, x2 = 0.95 | 96.736
324.95 K, 10996 kPa, x2 = 0.5001 | 58.014
324.95 K, 10996 kPa, x2 = 0.95 | 105.963
324.95 K, 10997 kPa, x2 = 0.9 | 100.42
324.95 K, 11997 kPa, x2 = 0.5001 | 62.949
324.95 K, 11999 kPa, x2 = 0.9 | 109.068
324.95 K, 12979 kPa, x2 = 0.95 | 123.971
324.95 K, 12995 kPa, x2 = 0.5001 | 67.81
324.95 K, 13000 kPa, x2 = 0.9 | 117.611
324.95 K, 13992 kPa, x2 = 0.5001 | 72.609
324.95 K, 13997 kPa, x2 = 0.9 | 126.005
324.95 K, 13998 kPa, x2 = 0.95 | 133.041
324.95 K, 14993 kPa, x2 = 0.5001 | 77.366
324.95 K, 14996 kPa, x2 = 0.9 | 134.301
324.95 K, 15985 kPa, x2 = 0.5001 | 82.016
324.95 K, 15998 kPa, x2 = 0.9 | 142.496
324.95 K, 16998 kPa, x2 = 0.5001 | 86.706
324.95 K, 17000 kPa, x2 = 0.9 | 150.561
324.95 K, 17998 kPa, x2 = 0.5001 | 91.271
324.95 K, 18003 kPa, x2 = 0.9 | 158.509
324.95 K, 18996 kPa, x2 = 0.5001 | 95.768
324.95 K, 19001 kPa, x2 = 0.9 | 166.298
324.95 K, 19974 kPa, x2 = 0.5001 | 100.115
349.93 K, 2982 kPa, x2 = 0.95 | 27.214
349.93 K, 12999 kPa, x2 = 0.95 | 114.314
349.93 K, 13999 kPa, x2 = 0.95 | 122.495
349.93 K, 14993 kPa, x2 = 0.95 | 130.518
349.93 K, 15998 kPa, x2 = 0.95 | 138.524
349.94 K, 997 kPa, x2 = 0.95 | 9.137
349.94 K, 998 kPa, x2 = 0.9 | 8.697
349.94 K, 999 kPa, x2 = 0.5001 | 5.133
349.94 K, 1998 kPa, x2 = 0.5001 | 10.223
349.94 K, 1998 kPa, x2 = 0.95 | 18.271
349.94 K, 1999 kPa, x2 = 0.9 | 17.375
349.94 K, 2979 kPa, x2 = 0.9 | 25.835
349.94 K, 2984 kPa, x2 = 0.5001 | 15.198
349.94 K, 3995 kPa, x2 = 0.5001 | 20.259
349.94 K, 3997 kPa, x2 = 0.95 | 36.385
349.94 K, 3998 kPa, x2 = 0.9 | 34.568
349.94 K, 4998 kPa, x2 = 0.9 | 43.083
349.94 K, 4998 kPa, x2 = 0.95 | 45.368
349.94 K, 5000 kPa, x2 = 0.5001 | 25.225
349.94 K, 5998 kPa, x2 = 0.5001 | 30.119
349.94 K, 5998 kPa, x2 = 0.9 | 51.533
349.94 K, 5998 kPa, x2 = 0.95 | 54.273
349.94 K, 6996 kPa, x2 = 0.5001 | 34.959
349.94 K, 6996 kPa, x2 = 0.95 | 63.099
349.94 K, 6997 kPa, x2 = 0.9 | 59.903
349.94 K, 7995 kPa, x2 = 0.5001 | 39.749
349.94 K, 7998 kPa, x2 = 0.9 | 68.207
349.94 K, 7998 kPa, x2 = 0.95 | 71.871
349.94 K, 8997 kPa, x2 = 0.5001 | 44.504
349.94 K, 8998 kPa, x2 = 0.9 | 76.424
349.94 K, 8999 kPa, x2 = 0.95 | 80.553
349.94 K, 9995 kPa, x2 = 0.5001 | 49.185
349.94 K, 9996 kPa, x2 = 0.9 | 84.544
349.94 K, 9999 kPa, x2 = 0.95 | 89.144
349.94 K, 10995 kPa, x2 = 0.5001 | 53.825
349.94 K, 10996 kPa, x2 = 0.9 | 92.584
349.94 K, 10998 kPa, x2 = 0.95 | 97.623
349.94 K, 11994 kPa, x2 = 0.5001 | 58.4
349.94 K, 11995 kPa, x2 = 0.95 | 105.989
349.94 K, 11997 kPa, x2 = 0.9 | 100.534
349.94 K, 12994 kPa, x2 = 0.9 | 108.364
349.94 K, 12996 kPa, x2 = 0.5001 | 62.939
349.94 K, 13990 kPa, x2 = 0.5001 | 67.389
349.94 K, 14000 kPa, x2 = 0.9 | 116.157
349.94 K, 14992 kPa, x2 = 0.5001 | 71.82
349.94 K, 14999 kPa, x2 = 0.9 | 123.797
349.94 K, 15993 kPa, x2 = 0.9 | 131.294
349.94 K, 15994 kPa, x2 = 0.5001 | 76.196
349.94 K, 16996 kPa, x2 = 0.5001 | 80.519
349.94 K, 16996 kPa, x2 = 0.95 | 146.347
349.94 K, 17001 kPa, x2 = 0.9 | 138.788
349.94 K, 17991 kPa, x2 = 0.5001 | 84.762
349.94 K, 17997 kPa, x2 = 0.9 | 146.084
349.94 K, 18002 kPa, x2 = 0.95 | 154.124
349.94 K, 18991 kPa, x2 = 0.5001 | 88.967
349.94 K, 18992 kPa, x2 = 0.9 | 153.266
349.94 K, 18992 kPa, x2 = 0.95 | 161.661
349.94 K, 19744 kPa, x2 = 0.9 | 158.626
349.94 K, 19885 kPa, x2 = 0.5001 | 92.681
349.94 K, 19940 kPa, x2 = 0.95 | 168.761

From the NIST ThermoML archive (doi:10.1021/acs.jced.7b00694)
